Measured values from patent US20060100431A1, “Biologically active compounds” (Amura Therapeutics Limited, priority 2002, published 2006).
Read-outs that look alike come from different tables or passages of the source.

Tests used:
Format in all cases: biochemical
CPB2.8ΔCTE = target: T1, CPB2.8ΔCTE (Leishmania mexicana, UniProt P36400); assay: Leishmania mexicana cysteine protease B (CPB) peptidase activity assay (Ki)
T1 construct: Wild-type recombinant CPB without the C-terminal extention (i.e. CPB2.8ΔCTE); Dr. Jeremy Mottram (Wellcome Centre for Molecular Parasitology, University of Glasgow)
Method in brief: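 Recombinant CPB2.8ΔCTE (0.25 nM) was assayed in 100 mM sodium acetate pH 5.5 with 1 mM EDTA, 200 mM NaCl and 10 mM DTT at 25 °C, DMSO <1%, enzyme added to start. Rates were taken from continuous fluorescence slopes; apparent Ki was fitted assuming reversible, pure-competitive inhibition.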

Wild-type cruzipain = Wild-type cruzipain (Trypanosoma cruzi, UniProt P25779); assay: Trypanosoma cruzi cruzipain peptidase activity assay (Ki)
Method in brief: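 Native cruzipain from T. cruzi Dm28 epimastigotes, 2.5 nM, in 100 mM sodium phosphate pH 6.75 with 1 mM EDTA and 10 mM L-cysteine, 25 °C, DMSO <1%. Rates taken from continuous fluorogenic substrate read; Ki by regression assuming reversible pure-competitive inhibition.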

human cathepsin L = target: T2, human cathepsin L (Homo sapiens, UniProt P07711); assay: Cathepsin L peptidase activity assay (Ki)
T2 construct: purchased CN Biosciences
Method in brief: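 Human cathepsin L at 1 nM with Ac-Phe-Arg-AMC at its KM^app (~20 μM) in 10 mM bis-tris-propane pH 6.5, 1 mM EDTA, 5 mM 2-mercaptoethanol, 1 mM CaCl2, DMSO <1%, 25±1° C. Reaction enzyme-initiated; AMC fluorescence (ex 365/em 450 nm) monitored over time.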

[1] = Ki, inhibitors of Leismania mexicana CPB protease
[2] = Table 5, read-out: Ki Cruzipain
[3] = read-out: Ki, inhibitors of cruzain and cruzipains
[4] = Table 5, read-out: Ki Human Cathepsin L
[5] = read-out: Ki, inhibitors of cathepsin L

T1 sequence (P36400 126-343, stated change not applied): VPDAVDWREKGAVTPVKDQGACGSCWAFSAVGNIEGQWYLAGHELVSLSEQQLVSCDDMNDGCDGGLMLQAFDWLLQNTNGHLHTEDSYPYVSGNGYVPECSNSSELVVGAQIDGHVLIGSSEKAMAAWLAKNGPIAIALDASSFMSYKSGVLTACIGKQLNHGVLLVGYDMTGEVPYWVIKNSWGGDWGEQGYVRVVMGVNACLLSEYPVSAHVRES
T2 sequence (P07711 114-333): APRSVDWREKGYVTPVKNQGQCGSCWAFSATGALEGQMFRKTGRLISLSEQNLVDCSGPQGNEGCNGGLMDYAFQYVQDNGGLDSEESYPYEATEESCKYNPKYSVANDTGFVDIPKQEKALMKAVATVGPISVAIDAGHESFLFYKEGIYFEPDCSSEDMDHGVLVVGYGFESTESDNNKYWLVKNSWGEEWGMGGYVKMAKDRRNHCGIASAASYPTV
Chain of Wild-type cruzipain (P25779 whole entry): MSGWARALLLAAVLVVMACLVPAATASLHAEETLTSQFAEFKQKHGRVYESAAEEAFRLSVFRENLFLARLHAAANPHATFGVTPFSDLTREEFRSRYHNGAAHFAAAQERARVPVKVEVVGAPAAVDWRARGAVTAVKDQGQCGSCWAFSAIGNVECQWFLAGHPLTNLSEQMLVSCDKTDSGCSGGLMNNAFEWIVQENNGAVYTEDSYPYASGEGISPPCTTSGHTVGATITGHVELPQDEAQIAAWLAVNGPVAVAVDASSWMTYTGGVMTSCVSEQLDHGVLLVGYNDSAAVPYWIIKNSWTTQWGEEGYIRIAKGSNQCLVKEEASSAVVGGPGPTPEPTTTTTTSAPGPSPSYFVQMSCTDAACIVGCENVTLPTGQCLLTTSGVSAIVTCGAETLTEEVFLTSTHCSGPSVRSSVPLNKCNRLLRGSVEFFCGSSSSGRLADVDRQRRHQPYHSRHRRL

SMILES	Ki (CPB2.8ΔCTE; Ki CPB, Table 5) [µM]	Ki (CPB2.8ΔCTE; [1]) [µM]	Ki (Wild-type cruzipain; [2]) [µM]	Ki (Wild-type cruzipain; [3]) [µM]	Ki (human cathepsin L; [4]) [µM]	Ki (human cathepsin L; [5]) [µM]
CC(C)C[C@H](NC(=O)c1ccc(-c2cccs2)cc1)C(=O)N1CC[C@@H]2[C@H]1C(=O)CN2C(=O)c1ccccc1 [Example 2, (3aR,6aS)-N-[(1S)-1-(4-Benzoyl-6-oxo-hexahydro-pyrrolo[3,2-b]pyrrole-1-carbonyl)-3-methyl-butyl]-4-thiophen-2-yl-benzamide]	> 0.2	< 5	> 0.3	< 5	> 3	–
CC(C)C[C@H](NC(=O)c1ccc(N(C)C)cc1)C(=O)N1CC[C@@H]2[C@H]1C(=O)CN2C(=O)c1csc2ccccc12 [Example 103, (3aR,6aS)-N-{(1S)-1-[4-(Benzo[b]thiophene-3-carbonyl)-6-oxo-hexahydro-pyrrolo[3,2-b]pyrrole-1-carbonyl]-3-methyl-butyl}-4-dimethylamino-benzamide]	–	< 5	–	< 5	–	< 5
CC(C)C[C@H](NC(=O)c1ccc(N(C)C)cc1)C(=O)N1CC[C@@H]2[C@H]1C(=O)CN2C(=O)[C@@H](NC(=O)OCc1ccccc1)C(C)C [Example 158, (3aS,6aR)-((S)-1-{4-[(2S)-2-(4-Dimethylamino-benzoylamino)-4-methyl-pentanoyl]-3-oxo-hexahydro-pyrrolo[3,2-b]pyrrole-1-carbonyl}-2-methyl-propyl)-carbamic acid benzyl ester]	–	< 5	–	< 5	–	< 5
CC(=O)N[C@@H](CC(C)C)C(=O)N1CC(=O)[C@@H]2[C@H]1CCN2C(=O)[C@H](CC(C)C)NC(=O)c1ccc(N(C)C)cc1 [Example 151, (3aR,6aS)-N-{(1S)-1-[4-((2S)-2-Acetylamino-4-methyl-pentanoyl)-6-oxo-hexahydro-pyrrolo[3,2-b]pyrrole-1-carbonyl]-3-methyl-butyl}-4-dimethylamino-benzamide]	–	< 5	–	< 5	–	< 5
CC(C)C[C@H](NC(=O)c1ccc2ncsc2c1)C(=O)N1CC[C@@H]2[C@H]1C(=O)CN2C(=O)c1ccccc1 [Example 90, (3aR,6aS)-Benzothiazole-6-carboxylic acid [(1S)-1-(4-benzoyl-6-oxo-hexahydro-pyrrolo[3,2-b]pyrrole-1-carbonyl)-3-methyl-butyl]-amide]	–	< 5	–	< 5	–	< 5
CC(C)CC(NC(=O)c1ccc(N)cc1)C(=O)N1NC[C@@H]2[C@H]1C(=O)CN2C(=O)c1ccccc1 (stereo partly drawn) [Example 249b, (3aR,6aS)-4-amino-N-[1-(4-benzoyl-6-oxo-hexahydropyrrolo[3,2-c]pyrazole-1-carbonyl)-3-methylbutyl)benzamide]	–	< 5	–	< 5	–	< 5
CC(C)C[C@H](NC(=O)c1ccc(-n2cccn2)cc1)C(=O)N1CC[C@@H]2[C@H]1C(=O)CN2C(=O)c1ccccc1 [Example 91, (3aR,6aS)-N-[(1S)-1-(4-Benzoyl-6-oxo-hexahydro-pyrrolo[3,2-b]pyrrole-1-carbonyl)-3-methyl-butyl]-4-pyrazol-1-yl-benzamide]	–	< 5	–	< 5	–	< 5
CC(C)C[C@H](NC(=O)c1ccc(N2CCNCC2)cc1)C(=O)N1CC[C@@H]2[C@H]1C(=O)CN2C(=O)c1ccccc1 [Example 194, (3aR,6aS)-N-[(1S)-1-(4-Benzoyl-6-oxo-hexahydro-pyrrolo[3,2-b]pyrrole-1-carbonyl)-3-methyl-butyl]-4-piperazin-1-yl-benzamide]	–	< 5	–	< 5	–	< 5
CC(C)C[C@H](NC(=O)c1cccc(N(C)C)c1)C(=O)N1CC[C@@H]2[C@H]1C(=O)CN2C(=O)c1cccc(S(C)(=O)=O)c1 [Example 59, (3aR,6aS)-3-Dimethylamino-N-{(1S)-1-[4-(3-methanesulfonyl-benzoyl)-6-oxo-hexahydro-pyrrolo[3,2-b]pyrrole-1-carbonyl]-3-methyl-butyl}-benzamide]	–	< 5	–	< 5	–	< 5
CC(C)C[C@H](NC(=O)c1ccc(N(C)C)cc1)C(=O)N1CC[C@@H]2[C@H]1C(=O)CN2C(=O)c1ccccc1 [Example 14, (3aR,6aS)-N-[(1S)-1-(4-Benzoyl-6-oxo-hexahydro-pyrrolo[3,2-b]pyrrole-1-carbonyl)-3-methyl-butyl]-4-dimethylamino-benzamide]	–	< 5	–	< 5	–	< 5
CC(C)C[C@H](NC(=O)c1ccc(N)cc1)C(=O)N1NC[C@@H]2[C@H]1C(=O)CN2C(=O)c1cccc(S(C)(=O)=O)c1 [Example 249c, (3aR,6aS)-4-amino-N-{(1S)-1-[4-(3-methanesulfonylbenzoyl)-6-oxo-hexahydropyrrolo [3,2-c]pyrazole-1-carbonyl]-3-methylbutyl}benzamide]	–	< 5	–	< 5	–	< 5
CC(C)C[C@H](NC(=O)c1ccc2c(c1)CCCN2)C(=O)N1CC[C@@H]2[C@H]1C(=O)CN2C(=O)c1ccccc1 [Example 87, (3aR,6aS)-1,2,3,4-Tetrahydro-quinoline-6-carboxylic acid [(1S)-1-(4-benzoyl-6-oxo-hexahydro-pyrrolo[3,2-b]pyrrole-1-carbonyl)-3-methyl-butyl]-amide]	–	< 5	–	< 5	–	< 5
CC(C)C[C@H](NC(=O)c1cccc(N2CCNCC2)c1)C(=O)N1CC[C@@H]2[C@H]1C(=O)CN2C(=O)c1ccccc1 [Example 247, (3aR,6aS)-N-[(1S)-1-(4-Benzoyl-6-oxo-hexahydro-pyrrolo[3,2-b]pyrrole-1-carbonyl)-3-methyl-butyl]-3-piperazin-1-yl-benzamide]	–	< 5	–	< 5	–	< 5
CC(C)(C)c1ccc(C(=O)N[C@@H](Cc2ccc(O)cc2)C(=O)N2CC[C@@H]3[C@H]2C(=O)CN3C(=O)c2ccccc2)cc1 [Example 346, (3aR,6aS)-N-[(1S)-2-(4-Benzoyl-6-oxo-hexahydro-pyrrolo[3,2-b]pyrrol-1-yl)-1-(4-hydroxybenzyl)-2-oxo-ethyl]-4-tert-butyl-benzamide]	> 5	–	< 0.2	–	> 3	< 5
O=C(N[C@@H](CC1CCCCC1)C(=O)N1CC[C@@H]2[C@H]1C(=O)CN2C(=O)c1ccccc1)c1ccsc1 [Example 250, (3aR,6aS)-Thiophene-3-carboxylic acid [(1S)-2-(4-benzoyl-6-oxo-hexahydro-pyrrolo[3,2-b]pyrrole-1-yl)-1-cyclohexylmethyl-2-oxo-ethyl]-amide]	> 5	–	> 5	–	> 1	< 5
CC(C)C[C@H](NC(=O)c1ccc(C(C)(C)C)cc1)C(=O)N1NC[C@@H]2[C@H]1C(=O)CN2C(=O)c1ccccc1 [Example 249a, (3aR,6aS)-N-[(1S)-1-(4-benzoyl-6-oxo-hexahydropyrrolo[3,2-c]pyrazole-1-carbonyl)-3-methylbutyl]-4-tert-butylbenzamide]	–	< 5	–	< 5	–	< 5
CC(C)C[C@H](NC(=O)c1cc2ccccc2s1)C(=O)N1CC[C@@H]2[C@H]1C(=O)CN2C(=O)c1ccccc1 [Example 7, (3aR,6aS)-Benzo[b]thiophene-2-carboxylic acid [(1S)-1-(4-benzoyl-6-oxo-hexahydro-pyrrolo[3,2-b]pyrrole-1-carbonyl)-3-methyl-butyl]-amide]	–	–	–	< 5	–	< 5
O=C(N[C@@H](Cc1ccc(O)cc1)C(=O)N1CC[C@@H]2[C@H]1C(=O)CN2C(=O)c1ccccc1)c1cccc2ccccc12 [Example 296, (3aR,6aS)-Naphthalene-1-carboxylic acid [(1S)-2-(4-benzoyl-6-oxo-hexahydro-pyrrolo[3,2-b]pyrrole-1-yl)-1-(4-hydroxybenzyl)-2-oxo-ethyl]-amide]	> 5	–	> 1	< 5	< 0.2	–
CC(C)C[C@H](NC(=O)c1ccc(OC(F)(F)F)cc1)C(=O)N1CC[C@@H]2[C@H]1C(=O)CN2C(=O)c1ccccc1 [Example 173, (3aR,6aS)-N-[(1S)-1-(4-Benzoyl-6-oxo-hexahydro-pyrrolo[3,2-b]pyrrole-1-carbonyl)-3-methyl-butyl]-4-trifluoromethoxy-benzamide]	–	< 5	–	< 5	–	< 5
